Active and inactive are the calls of the source. The calls are words filed in the database; no cut-off is given here.
Legend:
[1] = target: Inhibitor of nuclear factor kappa-B kinase subunit beta (Homo sapiens, UniProt O14920); test: IKKbeta(IKBBLHY1) Takeda global kinase panel
[2] = target: Serine/threonine-protein kinase Nek9 (Homo sapiens, UniProt Q8TD19); test: Nek9(NEK9LGF1) Takeda global kinase panel
[3] = target: Tyrosine-protein kinase BTK (Homo sapiens, UniProt Q06187); test: BTK(BTK1CGF1) Takeda global kinase panel
[4] = target: Protein kinase C theta type (Homo sapiens, UniProt Q04759); test: PKCtheta(PRKQLGM5) Takeda global kinase panel
[5] = target: Dual specificity tyrosine-phosphorylation-regulated kinase 1A (Homo sapiens, UniProt Q13627); test: DYRK1A(DY1ALGP1) Takeda global kinase panel
[6] = target: SRSF protein kinase 1 (Homo sapiens, UniProt Q96SB4); test: SRPK1(SRP1IHRL) Takeda global kinase panel
[7] = target: Serine/threonine-protein kinase greatwall (Homo sapiens, UniProt Q96GX5); test: MASTL(MASLLGE1) Takeda global kinase panel
[8] = target: Vascular endothelial growth factor receptor 1 (Homo sapiens, UniProt P17948); test: FLT1(FLT1LGC5) Takeda global kinase panel
Sequence of Vascular endothelial growth factor receptor 1 (P17948 whole entry): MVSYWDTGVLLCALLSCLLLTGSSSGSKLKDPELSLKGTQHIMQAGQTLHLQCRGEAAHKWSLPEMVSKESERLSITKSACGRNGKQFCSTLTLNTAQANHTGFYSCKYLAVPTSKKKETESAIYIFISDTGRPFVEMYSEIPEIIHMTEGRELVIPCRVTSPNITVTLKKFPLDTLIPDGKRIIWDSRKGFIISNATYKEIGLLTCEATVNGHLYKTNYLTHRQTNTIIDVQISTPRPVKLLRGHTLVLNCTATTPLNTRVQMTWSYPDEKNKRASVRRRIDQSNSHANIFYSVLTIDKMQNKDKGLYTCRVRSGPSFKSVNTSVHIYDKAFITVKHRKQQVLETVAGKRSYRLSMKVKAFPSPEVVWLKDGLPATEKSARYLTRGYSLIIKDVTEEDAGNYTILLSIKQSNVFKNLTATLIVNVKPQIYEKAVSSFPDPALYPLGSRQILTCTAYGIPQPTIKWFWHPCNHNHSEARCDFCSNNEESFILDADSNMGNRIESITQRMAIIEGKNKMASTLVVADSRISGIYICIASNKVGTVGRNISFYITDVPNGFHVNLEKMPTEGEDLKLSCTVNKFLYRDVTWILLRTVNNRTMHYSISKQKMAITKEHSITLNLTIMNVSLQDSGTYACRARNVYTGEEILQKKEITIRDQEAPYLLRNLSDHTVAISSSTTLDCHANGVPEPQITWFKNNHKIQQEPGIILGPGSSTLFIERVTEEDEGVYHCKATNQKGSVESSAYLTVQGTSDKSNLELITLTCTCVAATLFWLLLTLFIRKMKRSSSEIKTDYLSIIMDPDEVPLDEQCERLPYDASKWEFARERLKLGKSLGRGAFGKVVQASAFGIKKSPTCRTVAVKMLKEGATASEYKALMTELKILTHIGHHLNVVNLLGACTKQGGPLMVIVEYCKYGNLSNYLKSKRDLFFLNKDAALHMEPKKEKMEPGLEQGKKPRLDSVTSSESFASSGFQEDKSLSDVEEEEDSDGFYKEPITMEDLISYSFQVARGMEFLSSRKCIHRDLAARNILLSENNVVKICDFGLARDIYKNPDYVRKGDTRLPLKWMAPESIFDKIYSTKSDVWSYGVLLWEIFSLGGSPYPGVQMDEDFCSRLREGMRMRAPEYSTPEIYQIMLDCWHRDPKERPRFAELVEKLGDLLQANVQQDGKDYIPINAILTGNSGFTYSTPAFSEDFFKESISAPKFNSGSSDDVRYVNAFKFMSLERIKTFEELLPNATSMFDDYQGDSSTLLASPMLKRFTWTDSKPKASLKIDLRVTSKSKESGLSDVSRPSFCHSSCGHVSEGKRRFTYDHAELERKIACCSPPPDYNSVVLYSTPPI

[9] = target: Serine/threonine-protein kinase Nek1 (Homo sapiens, UniProt Q96PY6); test: Nek1(NEK1LGY1) Takeda global kinase panel
[10] = target: GABA-A receptor; anion channel (Rattus norvegicus) (UniProt O09028+P15431+P18506+P18508+P19969+P20236+P23574+P23576+P28471+P28473+P30191+P62813+P63079+P63138+Q91ZM7+Q9ES14); conditions: Compound concentration 10.0 uM
[11] = target: Fibroblast growth factor receptor 3 (Homo sapiens, UniProt P22607); test: FGFR3(FGF3LGF1) Takeda global kinase panel
[12] = tested on: HT-29; test: HT29 necroptosis assay; type: functional, cell-based; conditions: Homo sapiens
[13] = target: Mitotic checkpoint serine/threonine-protein kinase BUB1 (Homo sapiens, UniProt O43683); test: Bub1(BUB1LGRL) Takeda global kinase panel
[14] = target: Receptor-interacting serine/threonine-protein kinase 2 (Homo sapiens, UniProt O43353); test: RIPK2(RIP2LGI1) Takeda global kinase panel
[15] = target: 5-hydroxytryptamine receptor 1B (Homo sapiens) (UniProt P28222); conditions: Compound concentration 10.0 uM
[16] = target: Mitogen-activated protein kinase 1 (Homo sapiens, UniProt P28482); test: ERK2(MAP1LGY1) Takeda global kinase panel
[17] = target: Serine/threonine-protein kinase VRK1 (Homo sapiens, UniProt Q99986); test: VRK1(VRK1LGRI) Takeda global kinase panel
Sequence of Serine/threonine-protein kinase VRK1 (Q99986 whole entry): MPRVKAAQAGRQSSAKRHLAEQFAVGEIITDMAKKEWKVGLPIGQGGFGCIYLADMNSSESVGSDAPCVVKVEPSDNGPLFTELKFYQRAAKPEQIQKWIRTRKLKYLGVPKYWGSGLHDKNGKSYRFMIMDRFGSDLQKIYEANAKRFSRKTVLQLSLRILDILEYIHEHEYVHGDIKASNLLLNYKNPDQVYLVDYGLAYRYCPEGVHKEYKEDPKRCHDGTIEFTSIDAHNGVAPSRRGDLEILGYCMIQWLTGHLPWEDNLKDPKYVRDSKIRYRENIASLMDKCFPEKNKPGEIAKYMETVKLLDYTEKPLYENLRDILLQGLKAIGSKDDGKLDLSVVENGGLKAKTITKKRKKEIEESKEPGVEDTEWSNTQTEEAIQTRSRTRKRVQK

[18] = target: Alpha-1D adrenergic receptor (Homo sapiens) (UniProt P25100); conditions: Compound concentration 10.0 uM
[19] = target: Ephrin type-B receptor 2 (Homo sapiens, UniProt P29323); test: EphB2(EPB2LGY1) Takeda global kinase panel
[20] = target: Activated CDC42 kinase 1 (Homo sapiens, UniProt Q07912); test: Ack(TNK2LGF1) Takeda global kinase panel
[21] = target: Serine/threonine-protein kinase MARK1 (Homo sapiens, UniProt Q9P0L2); test: MARK1(MAR1PHY1) Takeda global kinase panel
[22] = target: Serine/threonine-protein kinase TNNI3K (Homo sapiens, UniProt Q59H18); test: HH498(TNNILGY1) Takeda global kinase panel
[23] = target: Tyrosine-protein kinase JAK3 (Homo sapiens, UniProt P52333); test: JAK3(JAK3LGRG) Takeda global kinase panel
[24] = target: Mitogen-activated protein kinase 10 (Homo sapiens, UniProt P53779); test: JNK3(MP10LGF2) Takeda global kinase panel
[25] = target: Ephrin type-B receptor 1 (Homo sapiens, UniProt P54762); test: EphB1(EPB1LGY1) Takeda global kinase panel
Sequence of Ephrin type-B receptor 1 (P54762 whole entry): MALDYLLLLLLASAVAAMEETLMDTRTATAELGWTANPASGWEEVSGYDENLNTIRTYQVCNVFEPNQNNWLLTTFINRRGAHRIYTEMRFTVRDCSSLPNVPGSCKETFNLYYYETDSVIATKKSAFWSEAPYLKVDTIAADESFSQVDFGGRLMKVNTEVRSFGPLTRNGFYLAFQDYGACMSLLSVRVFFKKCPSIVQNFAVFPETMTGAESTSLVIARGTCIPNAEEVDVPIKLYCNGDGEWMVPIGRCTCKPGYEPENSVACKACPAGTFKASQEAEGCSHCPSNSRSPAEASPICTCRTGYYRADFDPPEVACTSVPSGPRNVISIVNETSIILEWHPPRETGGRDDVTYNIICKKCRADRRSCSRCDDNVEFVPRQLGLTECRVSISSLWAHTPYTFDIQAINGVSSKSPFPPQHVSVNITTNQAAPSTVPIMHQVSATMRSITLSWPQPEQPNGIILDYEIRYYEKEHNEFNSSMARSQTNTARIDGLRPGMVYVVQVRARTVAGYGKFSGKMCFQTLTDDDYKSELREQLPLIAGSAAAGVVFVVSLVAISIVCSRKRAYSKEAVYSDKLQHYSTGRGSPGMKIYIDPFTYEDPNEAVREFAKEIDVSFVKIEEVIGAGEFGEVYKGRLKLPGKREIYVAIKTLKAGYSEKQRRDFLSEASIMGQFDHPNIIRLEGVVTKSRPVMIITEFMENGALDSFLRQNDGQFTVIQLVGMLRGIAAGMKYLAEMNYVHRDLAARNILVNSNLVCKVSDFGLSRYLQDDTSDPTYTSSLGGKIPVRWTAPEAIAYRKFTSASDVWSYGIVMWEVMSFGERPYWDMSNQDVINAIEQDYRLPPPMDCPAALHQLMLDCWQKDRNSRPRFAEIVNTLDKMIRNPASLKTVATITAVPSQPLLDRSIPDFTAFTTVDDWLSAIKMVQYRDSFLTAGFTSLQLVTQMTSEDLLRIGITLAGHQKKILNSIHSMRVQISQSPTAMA

[26] = target: Mitogen-activated protein kinase kinase kinase kinase 1 (Homo sapiens, UniProt Q92918); test: HPK1(M4K1LGY1) Takeda global kinase panel
[27] = target: Serine/threonine-protein kinase PLK3 (Homo sapiens, UniProt Q9H4B4); test: PLK3(PLK3PHY1) Takeda global kinase panel
[28] = target: 5-hydroxytryptamine receptor 3A (Homo sapiens) (UniProt P46098); test: Inhibition of Serotonin (5-Hydroxytryptamine) 5-HT3 at 10 µM in the Eurofins-Panlabs radioligand binding assay (Eurofins_assay_271910); design: ligand concentration 0.69 nM; conditions: Compound concentration 10.0 uM
[29] = target: Peripheral plasma membrane protein CASK (Homo sapiens, UniProt O14936); test: CASK(CASKLGY1) Takeda global kinase panel
[30] = target: Protein kinase C eta type (Homo sapiens, UniProt P24723); test: PKCeta(PRKHLGRA) Takeda global kinase panel
[31] = target: Glycogen synthase kinase-3 beta (Homo sapiens, UniProt P49841); test: GSK3beta(GS3BLGM1) Takeda global kinase panel
[32] = target: Mast/stem cell growth factor receptor Kit (Homo sapiens, UniProt P10721); test: Kit(KIT1MGC1) Takeda global kinase panel
Sequence of Mast/stem cell growth factor receptor Kit (P10721 whole entry): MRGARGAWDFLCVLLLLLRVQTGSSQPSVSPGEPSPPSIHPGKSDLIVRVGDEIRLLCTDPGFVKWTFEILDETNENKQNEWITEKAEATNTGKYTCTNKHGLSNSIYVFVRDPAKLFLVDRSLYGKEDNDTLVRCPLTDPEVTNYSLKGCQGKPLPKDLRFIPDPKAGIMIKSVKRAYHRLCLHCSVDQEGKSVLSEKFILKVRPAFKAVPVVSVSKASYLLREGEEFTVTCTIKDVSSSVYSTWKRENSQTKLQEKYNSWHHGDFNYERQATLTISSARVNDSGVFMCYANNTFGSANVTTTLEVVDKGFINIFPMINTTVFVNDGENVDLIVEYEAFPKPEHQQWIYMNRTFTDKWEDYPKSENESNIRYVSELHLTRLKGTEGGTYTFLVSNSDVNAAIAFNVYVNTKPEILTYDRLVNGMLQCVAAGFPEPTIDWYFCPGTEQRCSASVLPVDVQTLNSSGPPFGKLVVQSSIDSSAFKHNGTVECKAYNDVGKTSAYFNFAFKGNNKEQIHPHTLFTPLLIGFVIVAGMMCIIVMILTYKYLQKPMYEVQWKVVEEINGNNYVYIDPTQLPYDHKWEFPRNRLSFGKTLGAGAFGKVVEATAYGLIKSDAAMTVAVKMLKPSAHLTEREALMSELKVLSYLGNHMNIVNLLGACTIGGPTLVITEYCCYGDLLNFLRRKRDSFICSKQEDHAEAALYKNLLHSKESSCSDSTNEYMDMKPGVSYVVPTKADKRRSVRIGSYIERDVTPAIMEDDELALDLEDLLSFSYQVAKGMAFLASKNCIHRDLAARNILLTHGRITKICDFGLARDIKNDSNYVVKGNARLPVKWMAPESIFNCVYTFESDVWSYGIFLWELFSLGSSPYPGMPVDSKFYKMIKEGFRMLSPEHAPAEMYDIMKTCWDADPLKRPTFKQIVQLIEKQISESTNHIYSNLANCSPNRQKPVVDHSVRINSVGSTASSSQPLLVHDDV

[33] = target: Sodium-dependent noradrenaline transporter (Homo sapiens) (UniProt P23975); conditions: Compound concentration 10.0 uM
[34] = target: 5-hydroxytryptamine receptor 1A (Homo sapiens) (UniProt P08908); conditions: Compound concentration 10.0 uM
[35] = target: Activin receptor type-1 (Homo sapiens, UniProt Q04771); test: ALK2(ACV1LGF1) Takeda global kinase panel
[36] = species: Oryctolagus cuniculus; conditions: Compound concentration 10.0 uM
[37] = target: Serine/threonine-protein kinase PLK4 (Homo sapiens, UniProt O00444); test: PLK4(PLK4LGF1) Takeda global kinase panel
[38] = target: Dual specificity protein kinase CLK4 (Homo sapiens, UniProt Q9HAZ1); test: CLK4(CLK4IGF1) Takeda global kinase panel
[39] = target: MAP/microtubule affinity-regulating kinase 3 (Homo sapiens, UniProt P27448); test: MARK3(MAR3LGO5) Takeda global kinase panel
[40] = target: D(1A) dopamine receptor (Homo sapiens) (UniProt P21728); conditions: Compound concentration 10.0 uM
Sequence of D(1A) dopamine receptor (Homo sapiens) (P21728 whole entry): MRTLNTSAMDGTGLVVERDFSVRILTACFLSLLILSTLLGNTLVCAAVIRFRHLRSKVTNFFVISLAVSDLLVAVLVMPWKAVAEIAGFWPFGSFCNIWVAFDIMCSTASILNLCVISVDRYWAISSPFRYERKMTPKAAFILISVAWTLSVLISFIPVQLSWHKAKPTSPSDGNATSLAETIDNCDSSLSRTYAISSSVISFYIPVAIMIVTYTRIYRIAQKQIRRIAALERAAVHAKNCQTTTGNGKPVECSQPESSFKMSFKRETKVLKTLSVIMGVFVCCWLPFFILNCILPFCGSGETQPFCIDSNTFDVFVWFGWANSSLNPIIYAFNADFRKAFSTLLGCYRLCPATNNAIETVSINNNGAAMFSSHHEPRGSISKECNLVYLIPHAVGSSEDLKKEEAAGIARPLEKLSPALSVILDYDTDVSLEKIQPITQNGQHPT

[41] = target: Serine/threonine-protein kinase BRSK1 (Homo sapiens, UniProt Q8TDC3); test: BRSK1(BRS1LGA1) Takeda global kinase panel
[42] = target: Alpha-2A adrenergic receptor (Homo sapiens, UniProt P08913); test: GPCRScan assay: inhibition of Alpha2A; design: radioligand conc. used [nm] 1.0 – 3.0, parental cells stable MDCK
Sequence of Alpha-2A adrenergic receptor (P08913 whole entry): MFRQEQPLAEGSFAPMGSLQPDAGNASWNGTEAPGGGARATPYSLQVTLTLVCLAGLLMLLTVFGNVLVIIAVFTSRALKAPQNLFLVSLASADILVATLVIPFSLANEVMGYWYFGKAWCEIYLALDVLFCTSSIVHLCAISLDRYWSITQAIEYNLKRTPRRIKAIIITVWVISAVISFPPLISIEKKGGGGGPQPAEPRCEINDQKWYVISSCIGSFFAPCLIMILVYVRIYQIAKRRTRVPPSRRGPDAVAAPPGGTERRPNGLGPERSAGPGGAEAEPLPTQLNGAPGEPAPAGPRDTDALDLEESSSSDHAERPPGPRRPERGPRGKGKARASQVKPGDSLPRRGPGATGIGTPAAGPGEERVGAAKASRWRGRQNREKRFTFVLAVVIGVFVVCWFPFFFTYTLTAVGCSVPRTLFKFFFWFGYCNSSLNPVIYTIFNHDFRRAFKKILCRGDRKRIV

[43] = target: Ribosomal protein S6 kinase alpha-2 (Homo sapiens, UniProt Q15349); test: RSK3(R6A1CGE1) Takeda global kinase panel
[44] = target: Mitogen-activated protein kinase 11 (Homo sapiens, UniProt Q15759); test: p38beta(MP11LGI1) Takeda global kinase panel
Sequence of Mitogen-activated protein kinase 11 (Q15759 whole entry): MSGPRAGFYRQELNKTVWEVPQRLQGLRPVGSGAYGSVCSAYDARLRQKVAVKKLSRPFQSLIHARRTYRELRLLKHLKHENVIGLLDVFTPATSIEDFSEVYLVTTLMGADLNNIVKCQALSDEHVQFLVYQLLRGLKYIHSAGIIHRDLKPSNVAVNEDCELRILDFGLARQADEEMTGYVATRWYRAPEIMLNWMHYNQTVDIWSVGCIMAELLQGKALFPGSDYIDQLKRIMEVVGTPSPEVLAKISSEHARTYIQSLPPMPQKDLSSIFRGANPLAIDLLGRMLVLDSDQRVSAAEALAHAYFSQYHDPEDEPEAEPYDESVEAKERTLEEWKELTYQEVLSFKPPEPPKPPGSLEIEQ

[45] = target: D(1A) dopamine receptor (Homo sapiens) (UniProt P21728); conditions: Compound concentration 10.0 uM; remark: listed apart in the source

CN1C(=O)[C@@H](N2CCc3c(nn(Cc4ccccc4)c3Br)C2=O)COc2ccccc21 [TP-030-2]
IC50 [1]: 1000 nM | IC50 [2]: 1000 nM | IC50 [3]: 1000 nM | IC50 [4]: 1000 nM | IC50 [5]: 1000 nM | IC50 [6]: 1000 nM | IC50 [7]: 1000 nM | IC50 [8]: 1000 nM | IC50 [9]: 1000 nM | inhibition [10]: 8.81% | IC50 [11]: 1000 nM | IC50 [12]: 1.3 nM (active) | IC50 [13]: 1000 nM | IC50 [14]: 1000 nM | inhibition [15]: -3.35% | IC50 [16]: 1000 nM | IC50 [17]: 1000 nM | inhibition [18]: 5.52% | IC50 [19]: 1000 nM | IC50 [20]: 1000 nM | IC50 [21]: 1000 nM | IC50 [22]: 1000 nM | IC50 [23]: 1000 nM | IC50 [24]: 1000 nM | IC50 [25]: 1000 nM | IC50 [26]: 1000 nM | IC50 [27]: 1000 nM | inhibition [28]: 4% | IC50 [29]: 1000 nM | IC50 [30]: 1000 nM | IC50 [31]: 1000 nM | IC50 [32]: 1000 nM | inhibition [33]: 27% | inhibition [34]: 16.9% | IC50 [35]: 1000 nM | inhibition [36]: -4% | IC50 [37]: 1000 nM | IC50 [38]: 1000 nM | IC50 [39]: 1000 nM | inhibition [40]: 9% | IC50 [41]: 1000 nM | Ki [42]: 2360 nM | IC50 [43]: 1000 nM | IC50 [44]: 1000 nM | inhibition [45]: 16.1%
